{"source": "ChEMBL document CHEMBL1201862", "about": "“PubChem BioAssay data set” (2004)", "key": {"[1]": {"test": "Luminescence Cell-Based Dose Response HTS to Identify Activators of Luciferase Translation or Activity in H4 […] Cells. [Related pubchem assays: 1829 (Project Summary), 1814 (Primary HTS)]", "type": "functional"}, "[2]": {"system": "H4", "test": "Luminescence Cell-Based Dose Response HTS to Identify Activators of 5'UTR Stem-Loop Driven Prion Protein mRNA Translation in H4 Neuroglioblastoma Cells. [Related pubchem assays: 1829 (Project Summary), 1814 (Primary HTS)]", "type": "functional", "details": "Homo sapiens"}, "[3]": {"test": "Luminescence Cell-Based Dose Confirmation HTS to Identify Activators of 5'UTR Stem-Loop Driven Alpha-Synuclein mRNA Translation in H4 Neuroglioblastoma Cells. [Related pubchem assays: 1829 (Project Summary), 1814 (Primary HTS)]", "type": "functional"}, "[4]": {"test": "inhibitors of SNCA 5'UTR-driven reporter translation, confirmation, H4 neuroglioma cells, luminescence (AID 1988)", "type": "functional, cell-based"}, "[5]": {"test": "Luminescence Cell-Based Dose Response HTS to Identify Inhibitors of 5'UTR Stem-Loop Driven Prion Protein mRNA Translation in H4 Neuroglioblastoma Cells. [Related pubchem assays: 1827 (Project Summary), 1813 (Primary HTS)]", "type": "functional"}, "[6]": {"test": "inhibitors of firefly luciferase expression or activity, dose response, H4 neuroglioma cells, luminescence (AID 1990)", "type": "functional, cell-based"}, "[7]": {"molecular_target": "T1, Cytochrome P450 1A2 (Homo sapiens, UniProt P05177)", "T1 sequence (P05177 whole entry)": "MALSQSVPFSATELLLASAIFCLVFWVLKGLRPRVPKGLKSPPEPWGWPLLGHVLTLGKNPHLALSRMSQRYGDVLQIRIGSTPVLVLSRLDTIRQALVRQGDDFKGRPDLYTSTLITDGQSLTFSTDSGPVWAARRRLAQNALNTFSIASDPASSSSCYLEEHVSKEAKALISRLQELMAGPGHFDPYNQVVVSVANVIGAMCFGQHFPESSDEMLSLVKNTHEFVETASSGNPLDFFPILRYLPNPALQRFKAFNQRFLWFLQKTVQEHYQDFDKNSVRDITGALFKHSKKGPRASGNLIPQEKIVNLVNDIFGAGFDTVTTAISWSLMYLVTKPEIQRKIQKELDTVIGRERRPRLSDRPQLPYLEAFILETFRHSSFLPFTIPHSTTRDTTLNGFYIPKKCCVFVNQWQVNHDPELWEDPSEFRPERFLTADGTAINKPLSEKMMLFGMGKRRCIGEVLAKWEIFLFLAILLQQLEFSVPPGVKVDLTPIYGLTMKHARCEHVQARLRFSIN"}, "[8]": {"molecular_target": "T2, Streptokinase A (Streptococcus pyogenes serotype M1, UniProt P10520)", "T2 sequence (P10520 whole entry)": "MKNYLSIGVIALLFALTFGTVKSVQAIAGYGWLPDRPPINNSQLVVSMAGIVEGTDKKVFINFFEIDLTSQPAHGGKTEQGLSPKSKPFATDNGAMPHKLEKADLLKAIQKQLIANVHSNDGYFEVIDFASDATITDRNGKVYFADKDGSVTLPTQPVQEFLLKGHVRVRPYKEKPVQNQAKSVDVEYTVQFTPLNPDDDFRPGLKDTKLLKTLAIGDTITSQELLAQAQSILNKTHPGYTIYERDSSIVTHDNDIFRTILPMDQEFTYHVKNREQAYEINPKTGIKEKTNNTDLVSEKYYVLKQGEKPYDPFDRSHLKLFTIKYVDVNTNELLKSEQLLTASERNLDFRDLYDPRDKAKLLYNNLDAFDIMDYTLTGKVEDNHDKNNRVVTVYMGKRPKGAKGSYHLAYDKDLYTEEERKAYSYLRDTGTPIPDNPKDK", "test": "S. pyogenes streptokinase expression inhibitors, potency, dose response, plasminogen activation absorbance, OD405 (AID 1914);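 note: secreted streptokinase activity via plasminogen activation per viability signal from cell pellet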", "type": "functional, Streptococcus pyogenes M1 GAS"}, "[9]": {"system": "Streptococcus", "test": "Group A Streptococcus viability loss, dose response, counter-screen for streptokinase expression inhibitor project, luminescence, BacTiterGlo (AID 1915);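 note: potency for reduction of bacterial viability or growth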", "type": "functional, organism-based"}, "[10]": {"system": "Streptococcus sp. 'group A'", "test": "growth inhibition of control SK(-) GAS strain, dose response, counter-screen for streptokinase expression inhibitor project, luminescence, kanamycin, BacTiterGlo, confirmation (AID 1900)", "type": "functional, organism-based"}, "[11]": {"molecular_target": "Cytochrome P450 2C9 (Homo sapiens, UniProt P11712)", "sequence (P11712 whole entry)": "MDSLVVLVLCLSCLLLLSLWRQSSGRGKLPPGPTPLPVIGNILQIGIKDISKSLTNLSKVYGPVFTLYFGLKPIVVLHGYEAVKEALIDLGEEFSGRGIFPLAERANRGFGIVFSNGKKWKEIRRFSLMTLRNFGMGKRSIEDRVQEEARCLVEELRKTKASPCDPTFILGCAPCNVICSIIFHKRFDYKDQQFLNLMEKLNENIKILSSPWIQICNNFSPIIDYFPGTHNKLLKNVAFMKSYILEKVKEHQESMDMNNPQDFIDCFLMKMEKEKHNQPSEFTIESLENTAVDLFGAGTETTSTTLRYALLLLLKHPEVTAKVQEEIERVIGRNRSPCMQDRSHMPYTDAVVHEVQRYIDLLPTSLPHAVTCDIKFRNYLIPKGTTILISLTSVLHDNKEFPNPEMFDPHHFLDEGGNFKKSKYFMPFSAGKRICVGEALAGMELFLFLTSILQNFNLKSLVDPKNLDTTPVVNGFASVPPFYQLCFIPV"}, "[12]": {"molecular_target": "Cytochrome P450 3A4 (Homo sapiens, UniProt P08684)", "sequence (P08684 whole entry)": "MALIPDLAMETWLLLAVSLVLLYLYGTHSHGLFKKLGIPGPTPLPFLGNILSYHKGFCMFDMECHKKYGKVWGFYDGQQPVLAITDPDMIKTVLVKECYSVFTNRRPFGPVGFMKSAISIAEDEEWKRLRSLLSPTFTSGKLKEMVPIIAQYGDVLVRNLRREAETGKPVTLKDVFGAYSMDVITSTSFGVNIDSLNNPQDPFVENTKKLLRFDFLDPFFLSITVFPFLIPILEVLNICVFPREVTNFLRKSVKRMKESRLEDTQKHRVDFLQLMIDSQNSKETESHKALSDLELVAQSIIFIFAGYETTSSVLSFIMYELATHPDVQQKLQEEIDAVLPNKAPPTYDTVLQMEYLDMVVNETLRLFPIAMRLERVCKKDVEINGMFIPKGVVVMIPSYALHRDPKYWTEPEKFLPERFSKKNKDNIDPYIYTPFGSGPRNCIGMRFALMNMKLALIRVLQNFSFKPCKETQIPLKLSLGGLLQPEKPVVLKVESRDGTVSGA"}, "[13]": {"molecular_target": "Cytochrome P450 2C19 (Homo sapiens, UniProt P33261)", "sequence (P33261 whole entry)": "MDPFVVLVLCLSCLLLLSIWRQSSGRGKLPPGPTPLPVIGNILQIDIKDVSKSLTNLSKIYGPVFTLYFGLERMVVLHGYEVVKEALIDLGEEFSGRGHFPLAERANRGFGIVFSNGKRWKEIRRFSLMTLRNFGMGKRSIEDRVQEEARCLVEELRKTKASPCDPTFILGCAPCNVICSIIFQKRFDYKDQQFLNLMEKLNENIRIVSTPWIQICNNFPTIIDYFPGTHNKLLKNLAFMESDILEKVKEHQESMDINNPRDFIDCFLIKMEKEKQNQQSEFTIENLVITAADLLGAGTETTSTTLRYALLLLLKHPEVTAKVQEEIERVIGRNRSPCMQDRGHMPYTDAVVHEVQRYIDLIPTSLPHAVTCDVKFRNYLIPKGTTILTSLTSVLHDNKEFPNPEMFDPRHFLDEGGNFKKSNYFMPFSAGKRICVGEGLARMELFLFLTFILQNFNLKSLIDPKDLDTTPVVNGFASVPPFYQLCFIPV", "test": "Cytochrome panel assay with activity outcomes. Panel member name: p450-cyp2c19 Compounds with AC50 equal or less than 10 uM are considered active", "type": "functional", "details": "read-out: AC50"}, "[14]": {"molecular_target": "T3, Heat shock factor protein 1 (Mus musculus, UniProt P38532)", "T3 sequence (P38532 whole entry)": "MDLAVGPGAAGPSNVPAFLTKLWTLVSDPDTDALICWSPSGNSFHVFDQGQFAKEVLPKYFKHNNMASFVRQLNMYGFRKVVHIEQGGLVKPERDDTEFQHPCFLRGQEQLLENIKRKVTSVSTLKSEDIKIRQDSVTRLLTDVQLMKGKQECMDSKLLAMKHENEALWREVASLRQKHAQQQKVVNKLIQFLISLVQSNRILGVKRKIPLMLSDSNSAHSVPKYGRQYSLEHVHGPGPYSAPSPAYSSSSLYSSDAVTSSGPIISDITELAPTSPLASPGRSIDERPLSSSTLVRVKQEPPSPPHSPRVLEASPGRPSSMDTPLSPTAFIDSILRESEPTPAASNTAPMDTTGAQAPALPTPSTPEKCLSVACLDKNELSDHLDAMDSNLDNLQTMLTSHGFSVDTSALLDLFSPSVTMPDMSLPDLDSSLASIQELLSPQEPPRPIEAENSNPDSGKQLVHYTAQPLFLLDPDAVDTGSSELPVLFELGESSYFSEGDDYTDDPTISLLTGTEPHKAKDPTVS", "test": "inhibition of MG132-induced HSE-luciferase signal, confirmation, cell-based, NIH3T3, luminescence, dose retest (AID 2382);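 note: NIH3T3 fibroblasts with HSF1-driven luciferase reporter stressed by proteasome inhibitor MG132; luminescence from HSF1-driven luciferase expression after 8 hours of MG132 stress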", "type": "functional"}}, "note": "Activity calls are given as the source filed them."}
{"smiles": "CCCc1cc2c(=O)c(-c3ccc4c(c3)OCCO4)coc2cc1OS(C)(=O)=O", "values": [{"measurement": "EC50", "setting": "[1]", "result": "< 0.195 µM (inconclusive)"}, {"measurement": "EC50", "setting": "[2]", "result": "> 120 µM (not active)"}, {"measurement": "EC50", "setting": "[3]", "result": "0.103 µM (active)"}]}
{"smiles": "O=c1c2c(n3cnnc3n1C1CCCCC1)-c1ccccc1CC21CCCCC1", "values": [{"measurement": "EC50", "setting": "[4]", "result": "> 120 µM (not active)"}, {"measurement": "EC50", "setting": "[5]", "result": "> 120 µM (not active)"}, {"measurement": "EC50", "setting": "[6]", "result": "> 120 µM (not active)"}]}
{"smiles": "COc1ccnc(N=CNOCc2ccc(C)cc2)c1C#N", "values": [{"measurement": "EC50", "setting": "[1]", "result": "12.5 µM (active)"}, {"measurement": "EC50", "setting": "[2]", "result": "55.5 µM (active)"}, {"measurement": "EC50", "setting": "[3]", "result": "14.7 µM (active)"}]}
{"smiles": "Cc1ccc(C)c(NC(=O)c2cc3ccccn3n2)c1", "values": [{"measurement": "EC50", "setting": "[1]", "result": "0.163 µM (active)"}, {"measurement": "EC50", "setting": "[2]", "result": "41.1 µM (active)"}, {"measurement": "EC50", "setting": "[3]", "result": "0.765 µM (active)"}]}
{"smiles": "NS(=O)(=O)c1ccc(NC2(C(=O)O)CCCC2)cc1", "values": [{"measurement": "AC50", "setting": "[7]", "result": "0.794 µM (inconclusive)"}]}
{"smiles": "Cc1ccc(NC(=O)c2nc[nH]c2C(=O)N[C@@H](C)c2ccccc2)cc1", "values": [{"measurement": "EC50", "setting": "[4]", "result": "> 120 µM (not active)"}, {"measurement": "EC50", "setting": "[5]", "result": "> 120 µM (not active)"}, {"measurement": "EC50", "setting": "[8]", "result": "> 150 µM (not active)"}, {"measurement": "EC50", "setting": "[6]", "result": "17.3 µM (active)"}, {"measurement": "EC50", "setting": "[9]", "result": "16.9 µM (active)"}, {"measurement": "EC50", "setting": "[10]", "result": "1.05 µM (active)"}]}
{"smiles": "CCOC(=O)c1ncn2c1[C@H]1CCCN1C(=O)c1cc(OC)ccc1-2", "values": [{"measurement": "AC50", "setting": "[7]", "result": "39.8 µM (inconclusive)"}]}
{"smiles": "O=C(Nc1nnc(-c2ccccc2F)s1)C1CCCO1", "note": "(stereo unspecified)", "values": [{"measurement": "EC50", "setting": "[1]", "result": "0.89 µM (active)"}, {"measurement": "EC50", "setting": "[3]", "result": "0.223 µM (active)"}]}
{"smiles": "CNS(=O)(=O)c1ccc(NC(=O)c2cnn3c(C(F)F)cc(-c4ccccc4)nc23)cc1", "values": [{"measurement": "EC50", "setting": "[4]", "result": "12.1 µM (active)"}, {"measurement": "EC50", "setting": "[5]", "result": "31.8 µM (active)"}, {"measurement": "EC50", "setting": "[8]", "result": "> 150 µM (not active)"}, {"measurement": "EC50", "setting": "[6]", "result": "> 120 µM (not active)"}, {"measurement": "EC50", "setting": "[9]", "result": "> 150 µM (not active)"}, {"measurement": "EC50", "setting": "[10]", "result": "85.3 µM (active)"}]}
{"smiles": "CCCN(CCC)[C@@H]1CCc2c(OC)cccc2[C@@H]1C", "values": [{"measurement": "AC50", "setting": "[7]", "result": "31.6 µM (inconclusive)"}]}
{"smiles": "c1ccc2c3c([nH]c2c1)[C@@H]1[C@H]2CC[C@H]([C@H]4CCCN[C@H]42)N1CC3", "values": [{"measurement": "AC50", "setting": "[7]", "result": "15.8 µM (inconclusive)"}]}
{"smiles": "COc1cccc(Nc2ncc3nc(-c4cc(F)cc(F)c4)c(=O)n(C4CC4)c3n2)c1", "values": [{"measurement": "AC50", "setting": "[7]", "result": "6.31 µM (inconclusive)"}]}
{"smiles": "CCc1ccc(N2C(=O)/C(=C/c3cccs3)N(CC(=O)OC)C2=S)cc1", "values": [{"measurement": "AC50", "setting": "[11]", "result": "12.6 µM (inconclusive)"}, {"measurement": "AC50", "setting": "[12]", "result": "12.6 µM (inconclusive)"}, {"measurement": "AC50", "setting": "[7]", "result": "15.8 µM (inconclusive)"}, {"measurement": "AC50", "setting": "[13]", "result": "3.98 µM (inconclusive)"}]}
{"smiles": "C=CCn1c2ccccc2c2nnc(S)nc21", "values": [{"measurement": "EC50", "setting": "[4]", "result": "> 120 µM (not active)"}, {"measurement": "EC50", "setting": "[5]", "result": "> 120 µM (not active)"}, {"measurement": "EC50", "setting": "[6]", "result": "17.8 µM (active)"}]}
{"smiles": "CC1(C)CC(=O)C(CCCN2C(=O)c3ccccc3C2=O)C(=O)C1", "values": [{"measurement": "AC50", "setting": "[7]", "result": "28.2 µM (inconclusive)"}, {"measurement": "AC50", "setting": "[13]", "result": "39.8 µM (inconclusive)"}]}
{"smiles": "C/C(CCN1CCCc2nc(C)c(C)cc21)=N\\O[C@@H](C)c1cc(-c2c(C)cc(C)cc2C)no1", "values": [{"measurement": "AC50", "setting": "[12]", "result": "5.01 µM (inconclusive)"}]}
{"smiles": "COC(=O)c1nn(-c2cccc(C(F)(F)F)c2)c(=O)cc1Sc1ccccn1", "values": [{"measurement": "AC50", "setting": "[11]", "result": "3.98 µM (inconclusive)"}, {"measurement": "AC50", "setting": "[12]", "result": "20 µM (inconclusive)"}, {"measurement": "EC50", "setting": "[14]", "result": "> 195 µM (not active)"}]}
{"smiles": "CCOCC(=O)Nc1c(C(=O)Nc2ccccc2OC)oc2ccccc12", "values": [{"measurement": "AC50", "setting": "[12]", "result": "6.31 µM (inconclusive)"}]}
{"smiles": "COCCn1c(=O)c(-c2ccc(F)c(F)c2)nc2cncnc21", "values": [{"measurement": "AC50", "setting": "[12]", "result": "12.6 µM (inconclusive)"}]}
